The text below walks through data of patent US6593323B1, “Benzimidazole compounds and drugs containing the same” (Fuji Photo Film Co., Ltd., priority 1999, dated 2003).

One experiment concerns mouse peritoneal macrophages. Briefly: Suppression of foaming of macrophages: cholesterol ester (CE) production in mouse peritoneal macrophages loaded with liposomes. The format is cell-based. Conditions: mouse peritoneal macrophages, 5 μM. The protocol: Activity of the compounds of the present invention for suppressing the foaming of macrophages, which triggers arterial sclerosis, was examined. (1) In vitro experiment using mouse peritoneal macrophages.
15-Week old female ICR mice (Nippon SLC) were subjected to bleeding by cutting off their cervicalis, and Hanks buffer (Nippon Seiyaku) was injected into their peritoneal cavities. After abdominal regions of the mice were massaged, the buffer was recovered immediately, and then the resulting buffer was centrifuged at 1,000 r.p.m. for five minutes to collect peritoneal macrophages. Then, the collected macrophages were suspended in GTI medium (Wako Pure Chemical Industries), and inoculated onto a 24-well microtiter plate. After the macrophages were cultivated at 37° C. under 5% CO2 for two hours, the culture medium was changed with Dulbecco Modified Eagle Medium (MEM, Nippon Seiyaku). The macrophages were further cultivated at 37° C. under 5% CO2 for 16 hours, and then a test compound and liposomes were added to the culture.
1) Test compound: dissolved in DMSO (Wako Pure Chemical Industries),
2) Liposomes: PC/PS/DCP/CHOL=50/50/10/75 (nmol)
PC: Phosphatidylcholine (Funakoshi);
PS: Phosphatidylserine (Funakoshi);
DCP: Dicetylphosphate (Funakoshi);
CHOL: Cholesterol (Sigma)
After cultivation was further continued at 37° C. under 5% CO2 for 16 hours, lipid fraction was extracted with chloroform and methanol. The extracted lipid fraction was dissolved in isopropyl alcohol, and the produced cholesterol ester (CE) was quantified by an enzymatic luminescence method. Yield of the cholesterol ester was calculated as a relative ratio based on yield of the control as 100% where no test compound was added.
In the case of `CCCCCCN(CCCCCSc1nc2ccccc2[nH]1)C(=O)Nc1ccc(F)cc1F` [Ref. 3, reference compound], the “suppression of foaming of macrophages / cholesterol ester synthesis (result in words)” value is listed as “almost no inhibitory effect”.

Take `CC(C)Oc1cccc(OC(C)C)c1NC(=O)CN1CCN(CCCSc2nc3ccccc3[nH]2)CC1` [Ref. 2, reference compound]: the “suppression of foaming of macrophages / cholesterol ester synthesis (result in words)” value is “almost no inhibitory effect”. Still for that read-out and setting: the result for `O=C1c2ccccc2C(=O)N1CCCCSCc1nc2ccccc2[nH]1` [Ref. 1, reference compound] reads “completely inactive”.

Staying with this experiment, now noted: test compound 5 μM; 16 h with liposomes; cholesterol ester yield relative to control without test compound = 100% (smaller value = more potent suppression).
As for `O=C1CSC(=O)N1CCOCCSc1nc2ccccc2[nH]1` [Compound 22], the “CE yield (%)” value worked out at 23%. For the molecule “3-(6-(5-chlorobenzothiazolyl-2-thio)hexyl)-2,4-thiazolidinedione [Compound 16]”, the “CE yield (%)” value was found to be 15%. Take `CCCCCCN(CCCCCSc1nc2ccccc2[nH]1)C(=O)Nc1ccc(F)cc1F` [Ref. 3, reference compound]: the “CE yield (%)” value is given as 78%. Consider `O=C1CSC(=O)N1CCCCCSc1nc2ccccc2[nH]1` [Compound 2, 3-(5-(benzimidazolyl-2-thio)pentyl)-2,4-thiazolidinedione], for which the “CE yield (%)” value was determined as 19%. Regarding “3-(5-(1-methylbenzimidazolyl-2-thio)pentyl)-5-methyl-2,4-oxazolidinedione [Compound 14]”, the “CE yield (%)” value is given as 20%. On to `O=C1CSC(=O)N1CCOCCOCCSc1nc2ccccc2[nH]1` [Compound 23, 3-(2-(2-(2-benzimidazolyl-2-thio)ethoxy)ethoxy)ethyl-2,4-thiazolidinedione], for which the “CE yield (%)” value turned out to be 22%.

Regarding `CC(C)Oc1cccc(OC(C)C)c1NC(=O)CN1CCN(CCCSc2nc3ccccc3[nH]2)CC1` [Ref. 2, reference compound], the “CE yield (%)” value was 95%.

With `O=C1CCC(=O)N1CCCCCSc1nc2ccccc2[nH]1` [Compound 11, N-(5-(benzimidazolyl-2-thio)pentyl)succinimide], the “CE yield (%)” value worked out at 19%. On to `CCC(=O)n1c(SCCCCCN2C(=O)OC(C)C2=O)nc2ccccc21` (stereo not shown) [Compound 15, 3-(5-(1-propionylbenzimidazolyl-2-thio)pentyl)-5-methyl-2,4-oxazolidinedione], for which the “CE yield (%)” value was determined as 12%. Consider `O=C1c2ccccc2C(=O)N1CCCCSCc1nc2ccccc2[nH]1` [Ref. 1, reference compound], for which the “CE yield (%)” value amounted to 89%.
